From patent US9255088B2, “Premature-termination-codons readthrough compounds” (The Regents of the University of California, priority 2010, dated 2016)

How the values were obtained:
[1] = tested on: ATMs1981 autophosphorylation in AT153LA cells (TGA); test: Flow cytometry ATMs1981 autophosphorylation (FC-ATM) in AT153LA cells; format: cell-based, human; parameters: FC-ATM (Delta-FI, 30 μM): unit not given here; conditions: for FCATMs1981: summary of positive results; on FCATMs1981: key: the positive results on various assays are also summarized and labeled as '+'
Experimental: FC-SMC1 assay was performed as recently described (Nahas et al., 2009). FC-ATM-Ser1981 assay was based on Honda's assay (Honda et al., 2009, Leukemia. 23:409-414) with modifications. In brief, cells were resuspended in PBS and radiated for 10 Gy. After 1 h, the cells were fixed and permeabilized using the FIX & PERM cell permeabilization kit (Invitrogen). The cells were then incubated with 1 μl of mouse ATM-Ser1981 antibody (Cell Signaling Technology) for 2 h at room temperature. Cells were washed and resuspended in 100 μl PBS with Alexa Fluor 488 anti-mouse IgG (Invitrogen) for 45 min. Cells were next washed and resuspended in PBS with 0.2% paraformaldehyde and analyzed using a FACSCalibur (BD).
Studies on readthrough activity of RTC#13 derivatives as measured by FC-ATMS 1981 were performed according to the procedures provided in Example 1.
These two series, 7 and 9, were tested for readthrough activity using an assay in which the ATM protein kinase activity was measured using a flow cytometry-based ATMs1981 autophosphorylation assay (FC-ATM) (Nahas, S. A; et al., Clin. Chem. 2009, 55, 463-72). […] An increased Delta-FI indicates the restoration of ATM kinase activity by a compound.
(§1) These two series, 13 and 15, were again tested for readthrough activity using the assay in which the ATM protein kinase activity was measured by functional flow cytometry (FC-ATM) (Table 4 and FIG. 12). A second assay, irradiation (1R)-induced ATMs1981 nuclear foci formation (IRIF-ATM), was also used to confirm the readthrough activity of these compounds (Table 4 and FIG. 13). Table 3 summarizes the data for the analogues 13 and 15 (at 30 μM), in which the groups R, R′, and X were varied. More detailed data are reported in FIG. 5 (for FC-ATM assay), and in FIG. 6 (for IRIF-ATM assay). […] Thus, the pyrimidinedione unit serves as a good structural replacement for the 2-imino and 2-thioxo thiazolidin-4-one units.

[2] = tested on: ATM-Ser1981 foci in AT153LA cells (TGA A); test: Irradiation-induced ATM-Ser1981 foci (IRIF) in AT153LA cells; on IRIF (ATMs1981): key: the positive results on various assays are also summarized and labeled as '+'; format: cell-based, human; conditions: for IR-induced ATMs1981 foci formation, readthrough activity: A-T153LA cells (TGA), FIG. 13; for IRIF-ATM (%) (30 μM): Table 4, IR-induced ATMs1981 nuclear foci formation; for IRIF (ATMs1981): summary of positive results
Experimental: To evaluate the function of RTC-induced ATM protein, we measured irradiation-induced foci (IRIF) formation of ATM-Ser1981 in the same ATI53LA cells (TGA A). […] The maximum IRIF induction achieved in A-T cells by 10 μM RTC#13 was ˜40% of wild-type level. As a positive readthrough control, 144 μM of G418 (100 μg/ml) was used to treat cells. Our previous studies had shown that, at this concentration, […] induced a maximum level of ATMs1981 IRIF (Lai et al., 2004).
Immunostaining of nuclear foci of ATM-Ser1981 was performed as previously reported (Du et al., 2007). In brief, after being treated with compound for 4 d, cells were irradiated with 2 Gy and incubated at 37° C. for 30 min. The cells were dropped onto coverslips, fixed with 4% paraformaldehyde, and permeabilized. Coverslips were blocked for 1 h and incubated with mouse anti-ATM pSer1981 for 1 h (1:500; Rockland Immunochemicals, Inc). After a second blocking, cells were stained with FITC-conjugated anti-mouse IgG (1:150; Jackson ImmunoResearch Laboratories) for 1 h and mounted onto slides.
Studies on IR-induced ATMs1981 foci formation by RTC#13 and derivatives 13a, 13b, 13d, 13e, 13f, 13g, 13h, 13i, 13j, and 13k in A-T153LA cells (TGA) were performed according to the procedures provided in Example 1.
as §1

[3] = Table 2, compounds 7, 30 µM, change in fluorescence intensity before and after ionizing radiation
[4] = Table 4, compounds 13 and 15, 30 μM

| Compound | FCATMs1981 [1] | FC-ATM (Delta-FI, 30 μM) ([1]; Table 3, compounds 9, 30 μM) | FC-ATM (Delta-FI, 30 μM) [1, 4] | IRIF-ATM (%) (30 μM) [2] | further results |
| --- | --- | --- | --- | --- | --- |
| CN1C(=N)S/C(=C\c2ccc(-c3ccccc3[N+](=O)[O-])o2)C1=O [Compound 7c, (Z)-2-imino-3-methyl-5-((5-(2-nitrophenyl)furan-2-yl)methylene)thiazolidin-4-one] |  |  |  |  | FC-ATM (Delta-FI, 30 μM) [1, 3]: negative |
| N=C1NC(=O)/C(=C/c2ccc(-c3ccccc3F)o2)S1 [Compound 7g, (Z)-5-((5-(2-fluorophenyl)furan-2-yl)methylene)-2-iminothiazolidin-4-one] |  |  |  |  | FC-ATM (Delta-FI, 30 μM) [1, 3]: negative |
| COc1cccc(-c2ccc(/C=C3\SC(=N)NC3=O)o2)c1 [Compound 7h, (Z)-2-imino-5-((5-(3-methoxyphenyl)furan-2-yl)methylene)thiazolidin-4-one] | + |  |  |  | FC-ATM (Delta-FI, 30 μM) [1, 3]: 1.90 |
| N=C1NC(=O)/C(=C/c2ccc(-c3cccc(Cl)c3)o2)S1 [Compound 7i, (Z)-5-((5-(3-chlorophenyl)furan-2-yl)methylene)-2-iminothiazolidin-4-one] | + |  |  |  | FC-ATM (Delta-FI, 30 μM) [1, 3]: 2.27 |
| O=C1NC(=S)S/C1=C\c1ccc(-c2ccccc2C(F)(F)F)o1 [Compound 7k, (Z)-2-thioxo-5-((5-(2-(trifluoromethyl)phenyl)furan-2-yl)methylene)thiazolidin-4-one] |  |  |  |  | FC-ATM (Delta-FI, 30 μM) [1, 3]: negative |
| COc1ccccc1-c1ccc(/C=C2\SC(=S)NC2=O)o1 [Compound 7l, (Z)-5-((5-(2-methoxyphenyl)furan-2-yl)methylene)-2-thioxothiazolidin-4-one] |  |  |  |  | FC-ATM (Delta-FI, 30 μM) [1, 3]: negative |
| COc1cccc(-c2ccc(/C=C3\SC(=S)NC3=O)o2)c1 [Compound 7o] | + |  |  |  | FC-ATM (Delta-FI, 30 μM) [1, 3]: 2.66 |
| O=C1NC(=S)S/C1=C\c1ccc(-c2cccc(Cl)c2)o1 [Compound 7p, (Z)-5-((5-(3-chlorophenyl)furan-2-yl)methylene)-2-thioxothiazolidin-4-one] | + |  |  |  | FC-ATM (Delta-FI, 30 μM) [1, 3]: 2.86 |
| N=C1NC(=O)/C(=C/c2cc3ccccc3o2)S1 [Compound 9a, (Z)-5-(benzofuran-2-ylmethylene)-2-iminothiazolidin-4-one] |  | negative |  |  |  |
| N=C1NC(=O)/C(=C/c2cc3ccccc3[nH]2)S1 [Compound 9b, (Z)-5-((1H-indol-2-yl)methylene)-2-iminothiazolidin-4-one] |  | negative |  |  |  |
| N=C1NC(=O)/C(=C/c2c[nH]c3ccccc23)S1 [Compound 9c, (Z)-5-((1H-indol-3-yl)methylene)-2-iminothiazolidin-4-one] |  | negative |  |  |  |
| N=C1NC(=O)/C(=C/c2ccc(-c3ccccn3)o2)S1 [Compound 9d, (Z)-2-imino-5-((5-(pyridin-2-yl)furan-2-yl)methylene)thiazolidin-4-one] |  | negative |  |  |  |
| N=C1NC(=O)/C(=C/c2ccc(-c3ccccc3)s2)S1 [Compound 9e, (Z)-2-imino-5-((5-phenylthiophen-2-yl)methylene)thiazolidin-4-one] |  | negative |  |  |  |
| N=C1NC(=O)/C(=C/c2ccco2)S1 [Compound 9f, (Z)-5-(furan-2-ylmethylene)-2-iminothiazolidin-4-one] |  | negative |  |  |  |
| O=C1NC(=S)S/C1=C\c1cc2ccccc2o1 [Compound 9g, (Z)-5-(benzofuran-2-ylmethylene)-2-thioxothiazolidin-4-one] | + | 3.50 |  |  | FC-ATM readthrough activity [1]: positive results |
| O=C1NC(=S)S/C1=C\c1cc2ccccc2[nH]1 [Compound 9h, (Z)-5-((1H-indol-2-yl)methylene)-2-thioxothiazolidin-4-one] |  | negative |  |  |  |
| O=C1NC(=S)S/C1=C\c1c[nH]c2ccccc12 [Compound 9i, (Z)-5-((1H-indol-3-yl)methylene)-2-thioxothiazolidin-4-one] |  | negative |  |  |  |
| O=C1NC(=S)S/C1=C\c1ccc(-c2ccccn2)o1 [Compound 9j, (Z)-5-((5-(pyridin-2-yl)furan-2-yl)methylene)-2-thioxothiazolidin-4-one] |  | negative |  |  |  |
| O=c1[nH]c(=O)n(Cc2ccc(-c3ccccc3[N+](=O)[O-])o2)cc1F [Compound 13b, 5-fluoro-1-((5-(2-nitrophenyl)furan-2-yl)methyl)pyrimidine-2,4(1H,3H)-dione] | + |  | 2.08 | 14.5% | IR-induced ATMs1981 foci formation, readthrough activity [2]: statistically significant readthrough activity |
| Cc1cn(Cc2ccc(-c3ccccc3[N+](=O)[O-])o2)c(=O)[nH]c1=O [Compound 13c] |  |  | negative | negative |  |
| O=Cc1cn(Cc2ccc(-c3ccccc3[N+](=O)[O-])o2)c(=O)[nH]c1=O [Compound 13d, 1-((5-(2-nitrophenyl)furan-2-yl)methyl)-2,4-dioxo-1,2,3,4-tetrahydropyrimidine-5-carbaldehyde] | + |  | 2.24 | 16.0% | IR-induced ATMs1981 foci formation, readthrough activity [2]: statistically significant readthrough activity; IRIF (ATMs1981) [2]: + |
| O=c1ccn(Cc2ccc(-c3ccccc3)o2)c(=O)[nH]1 [Compound 13e, 1-((5-phenylfuran-2-yl)methyl)pyrimidine-2,4(1H,3H)-dione] | + |  | 3.42 | 9.4% | IR-induced ATMs1981 foci formation, readthrough activity [2]: statistically significant readthrough activity; IRIF (ATMs1981) [2]: + |
| Cc1cn(Cc2ccc(-c3ccccc3)o2)c(=O)[nH]c1=O [Compound 13f, 5-methyl-1-((5-phenylfuran-2-yl)methyl)pyrimidine-2,4(1H,3H)-dione] | + |  | 3.80 | 22.75% | IR-induced ATMs1981 foci formation, readthrough activity [2]: statistically significant readthrough activity; IRIF (ATMs1981) [2]: + |
| O=c1ccn(Cc2ccc(-c3ccccc3F)o2)c(=O)[nH]1 [Compound 13g, 1-((5-(2-fluorophenyl)furan-2-yl)methyl)pyrimidine-2,4(1H,3H)-dione] | + |  | 5.43 | 20% | IR-induced ATMs1981 foci formation, readthrough activity [2]: all RTC#13 derivatives show statistically significant readthrough activity except for Derivative 13g |
| Cc1cn(Cc2ccc(-c3ccccc3F)o2)c(=O)[nH]c1=O [Compound 13h, 1-((5-(2-fluorophenyl)furan-2-yl)methyl)-5-methylpyrimidine-2,4(1H,3H)-dione] | + |  | 6.16 | 9.6% | IR-induced ATMs1981 foci formation, readthrough activity [2]: statistically significant readthrough activity; IRIF (ATMs1981) [2]: + |
| O=c1ccn(Cc2ccc(-c3cccc(Cl)c3)o2)c(=O)[nH]1 [Compound 13i, 1-((5-(3-chlorophenyl)furan-2-yl)methyl)pyrimidine-2,4(1H,3H)-dione] | + |  | 5.07 | 11.33% | IR-induced ATMs1981 foci formation, readthrough activity [2]: statistically significant readthrough activity |
| N=C1NC(=O)/C(=C/c2cn(Cc3ccc(-c4ccccc4[N+](=O)[O-])o3)c(=O)[nH]c2=O)S1 [Compound 13j, (Z)-5-((2-imino-4-oxothiazolidin-5-ylidene)methyl)-1-((5-(2-nitrophenyl)furan-2-yl)methyl)pyrimidine-2,4(1H,3H)-dione] | + |  | 2.42 | 18% | IR-induced ATMs1981 foci formation, readthrough activity [2]: statistically significant readthrough activity; IRIF (ATMs1981) [2]: + |
